Experimental data: publication doi:10.1101/2024.05.06.592687v1 (bioRxiv, 2024)
“Also recorded” adds a separate entry of the source.

What was measured:
[1] = Hexapeptide aggregative properties; type: physicochemical; settings: for Aggregation properties, in words: 800 μM (16p: 288 μM)
[2] = type: physicochemical; settings: 800 μM
[3] = Negative staining transmission electron microscopy of peptide structures; type: physicochemical; settings: for Structure (TEM): negative staining, 1% uranyl acetate; for Diameter / Structures comments / Pitch length / Width / Diameter, Tight / Diameter, Wide: negative staining TEM
[4] = Cryo-EM of peptide sample; type: physicochemical; settings: data not shown
[5] = Critical assembly concentration; type: physicochemical; settings: sedimentable versus total peptide concentration
[6] = Reversibility of polymerized structures by dilution; type: physicochemical; settings: polymerized at 2x Cr, diluted 8-fold to 0.25 Cr
[7] = Hexapeptide amyloidogenicity; type: physicochemical; settings: 800 μM (16p: 288 μM)
[8] = Solubility of hexapeptides in water; type: physicochemical; settings: deionized water

| Substance | Aggregation properties, in words [1] | Classification of the peptide (aggregative / amyloid / soluble), in words [2] | Structure (TEM) [3] | Structures comments [3] | further results |
| --- | --- | --- | --- | --- | --- |
| IKQVYV [5p] | very weak | entirely soluble; also recorded: non-aggregative | – | – | – |
| IYVQKV [9p] | no | entirely soluble; also recorded: non-aggregative | crystal structures | – | Structures seen by Cryo-EM [4]: absence of structures |
| KQIVYV [20p] | – | aggregative | fibrillar structures; also recorded: Filament/strand bundles | Homogeneous / bundles | Diameter [3]: 13 ± 2 nm |
| KVQIVY [10p] | – | aggregative | structures resembling ribbons; also recorded: Rather flat and tight ribbons | Heterogeneous | – |
| KVQYVI [14p] | no | entirely soluble | – | – | – |
| KYIQVV [2p] | – | aggregative; also recorded: strong aggregation potential | structures resembling ribbons; also recorded: Ribbons/ Filaments | – | Diameter [3]: 10 ± 2 nm |
| KYVIQV [15p] | – | aggregative; also recorded: strong aggregation potential | structures resembling ribbons; also recorded: Twisted ribbons | Rather homogeneous | Slope of the Cr linear regression [5]: 1.1; Reversion of structures after dilution, in words [6]: only partial; Pitch length [3]: 196 ± 34 nm; Width [3]: 21 ± 2 nm |
| QKVVYI [18p] | – | amyloid | fibrillar structures | Heterogeneous | Slope of the Cr linear regression [5]: 0.84; Reversion of structures after dilution, in words [6]: almost total reversion; Diameter, Tight [3]: 9 nm; Diameter, Wide [3]: 18 nm; Pitch length [3]: 107 ± 14 nm; Width [3]: 29 ± 7 nm; Structure (TEM) ([3]; listed as 18p*): Twisted ribbons/fibers |
| QKVYIV [19p] | – | aggregative | fibrillar structures; also recorded: Tangle ribbons | Few twists and bundles | Width [3]: 11± 3 nm |
| QKYIVV [8p] | no | entirely soluble | – | – | – |
| QVIKYV [23p] | very weak | entirely soluble; also recorded: non-aggregative | – | – | – |
| VKVIYQ [7p] | – | aggregative; also recorded: strong aggregation potential | fibrillar structures; also recorded: Twisted fibers | Homogeneous perpendicular breaks | Amyloidogenicity by Thioflavin T fluorescence, in words [7]: without fluorescence; Diameter [3]: 17 ± 4 nm; Pitch length [3]: 138 ± 12 nm |
| VKVYIQ [11p] | – | amyloid; also recorded: amyloidogenic character | fibrillar structures | – | Slope of the Cr linear regression [5]: 0.74; Reversion of structures after dilution, in words [6]: almost total reversion; Diameter [3]: 5 ± 1 nm; Structure (TEM) ([3]; listed as 11p*): Stringy filaments/fibers |
| VKYQVI [3p] | very weak | entirely soluble; also recorded: non-aggregative | – | – | – |
| VQIVYK [ß1, reference compound] | – | – | fibrillar structures | Rather homogeneous | Diameter [3]: 9 ± 2 nm; Pitch length [3]: 105 ± 20 nm; Diameter ([3]; listed as β1): ~10 nm; Pitch length ([3]; listed as β1): ~100 nm; Structure (TEM) ([3]; listed as ß1*): Double/Twisted fibers |
| VQKIYV [4p] | no | entirely soluble; also recorded: non-aggregative | – | – | – |
| VQVIYK [12p] | – | amyloid | fibrillar structures | Twisting of at least four filaments | Reversion of structures after dilution, in words [6]: almost total reversion; Diameter, Tight [3]: 7 nm; Diameter, Wide [3]: 15 nm; Pitch length [3]: 177 ± 26 nm; Structure (TEM) ([3]; listed as 12p*): Twisted Stringy filaments/fibers |
| VQVKYI [21p] | – | amyloid; also recorded: amyloidogenic character | globular/ovoid structures | Variable size / aggregates | Reversion of structures after dilution, in words [6]: almost total reversion; Diameter [3]: 25 ± 6 nm; Structure (TEM) ([3]; listed as 21p*): Globular/ovoid |
| VQVYKI [22p] | – | aggregative; also recorded: soluble | fibrillar structures; also recorded: Twisted ribbons bundles/fibers | Highly heterogeneous | – |
| VVQKYI [6p] | very weak | entirely soluble; also recorded: non-aggregative | – | – | – |
| YIVVQK [13p] | no | entirely soluble | – | – | – |
| YQVIVK [17p] | – | aggregative | structures resembling ribbons | Flat/short tangled, heterogeneous | Amyloidogenicity by Thioflavin T fluorescence, in words [7]: without fluorescence; Width [3]: 14 ± 2 nm |
| YQVKIV [16p] | strong aggregation | strong aggregation potential | structures resembling ribbons; also recorded: Rather ribbons | Very homogeneous, perpendicular breaks | Aggregation Threshold ([1]; 16p studied at ~290 μM (288 μM) due to poor solubility in water): 17 µM; Amyloidogenicity by Thioflavin T fluorescence, in words [7]: not amyloidogenic; Pitch length [3]: 44 ± 4 nm; Width [3]: 22±3 nm; Solubility in water, in words [8]: poor solubility in water; Solubility in water, in words ([8]; listed as 16p*): low solubility in water |
